# Laboratory results reported in patent US7211422B2, “Polypeptide having α-isomaltosylglucosaccharide synthase activity” (Kabushiki Kaisha Hayashibara Seibutsu Kagaku Kenkyujo, priority 2001, dated 2007).
# Legend:
# [1] = system: α-isomaltosylglucosaccharide-forming enzyme from Arthrobacter globiformis A19; assay: Action on saccharides (TLC before and after enzymatic reaction); assay type: biochemical; set-up: key: −: it showed no change; +: it showed a slight reduction of the color spot of the substrate and the formation of other reaction product; ++: it showed a high reduction of the color spot of the substrate and the formationof other reaction product; +++: it showed a substantial disappearance of the substrate spot and the formation of other reaction product; details: two units/g substrate, substrate 2% (w/v), 30° C., pH 8.4, 24 hours
# Method: (§1) It was tested whether saccharides can be used as substrates for the polypeptide of α-isomaltosylglucosaccharide-forming enzyme of the present invention. For the purpose, a solution of maltose, maltotriose, maltotetraose, maltopentaose, maltohexaose, maltoheptaose, isomaltose, isomaltotriose, panose, isopanose, trehalose, kojibiose, nigerose, neotrehalose, cellobiose, gentibiose, maltitol, maltotriitol, lactose, sucrose, erlose, selaginose, maltosyl glucoside, or isomaltosyl glucoside was prepared.
# (§2) To each of the above solutions was added two units/g substrate of a purified polypeptide specimen of α-isomaltosylglucosaccharide-forming enzyme from either Bacillus globisporus C11 obtained by the method in Experiment 1-3, Bacillus globisporus N75 obtained by the method in Experiment 2-3, or Arthrobacter globiformis A19 obtained by the method in Experiment 3-3, and the resulting each solution was adjusted to give a substrate concentration of 2% (w/v) and incubated at 30° C. and pH 6.0, except for using pH 8.4 for the enzyme from Arthrobacter globiformis A19, for 24 hours. In order to analyze the saccharides in the reaction mixture before and after the enzymatic reaction, silica gel thin-layer chromatography (hereinafter, abbreviated as “TLC”) was carried out. After two-times development using, as a developer, a mixture solution of n-butanol, pyridine, and water (=6:4:1), and, as a thin-layer plate, “KIESELGEL 60”, an aluminum plate (20×20 cm) for TLC commercialized by Merck & Co., Inc., Rahway, USA, the saccharides in the reaction mixture were examined whether the enzyme acted or not by the coloration of sugars by the sulfuric acid-methanol method.
# [2] = system: α-isomaltosylglucosaccharide-forming enzyme from Bacillus globisporus C11; assay: as above; assay type: biochemical; set-up: key: −: it showed no change; +: it showed a slight reduction of the color spot of the substrate and the formation of other reaction product; ++: it showed a high reduction of the color spot of the substrate and the formationof other reaction product; +++: it showed a substantial disappearance of the substrate spot and the formation of other reaction product; details: two units/g substrate, substrate 2% (w/v), 30° C., pH 6.0, 24 hours
# Method: as §1, §2
# [3] = system: α-isomaltosylglucosaccharide-forming enzyme from Bacillus globisporus N75; assay: as above; assay type: biochemical; set-up: key: −: it showed no change; +: it showed a slight reduction of the color spot of the substrate and the formation of other reaction product; ++: it showed a high reduction of the color spot of the substrate and the formationof other reaction product; +++: it showed a substantial disappearance of the substrate spot and the formation of other reaction product; details: two units/g substrate, substrate 2% (w/v), 30° C., pH 6.0, 24 hours
# Method: as §1, §2
# [4] = system: polypeptide having α-isomaltosylglucosaccharide-forming enzyme activity; assay: Action on saccharides, summary in words for the polypeptide in general; assay type: biochemical; details: summary of Table 7
# Method: as §1, §2
# [5] = system: polypeptide having α-isomaltosylglucosaccharide-forming enzyme activity, obtained in Experiment 1-3; assay: Reaction product from maltooligosaccharide (sugar composition by HPLC); assay type: biochemical, Bacillus globisporus C11; set-up: unit not given here; details: 1% (w/v) substrate, 35° C., pH 6.0, 8 hours
# Method: To an aqueous solution containing one percent (w/v) of maltose, maltotriose, maltotetraose, or maltopentaose as a substrate was added the polypeptide having α-isomaltosylglucosaccgaride-forming enzyme activity, obtained in Experiment 1-3, in an amount of two units/g-solid for maltose and maltotriose, 0.2 unit/g-solid for maltotetraose, and 0.1 unit/g-solid for maltopentaose, followed by incubation at 35° C. and pH 6.0 for 8 hours. After stopping the enzymatic reaction by a 10-minutes incubation, sugar compositions in the reaction mixture were measured by HPLC using “YMC Pack ODS-AQ303”, a column commercialized by YMC Co., Ltd., Tokyo, Japan, at a column temperature of 40° C. and a flow rate of 0.5 ml/minutes of water, and using as a detector “RI-8012”, a differential refractometer commercialized by Tosoh Corporation, Tokyo, Japan.
"Enzyme action, A19 enzyme [1]","Enzyme action, C11 enzyme [2]","Enzyme action, N75 enzyme [3]",Action of the polypeptide on the saccharide (in words) [4],"Sugar composition of reaction mixture, substrate Maltopentaose ([5]; 0.1 unit/g-solid)","Sugar composition of reaction mixture, substrate Maltotetraose ([5]; 0.2 unit/g-solid)","Sugar composition of reaction mixture, substrate Maltotriose ([5]; two units/g-solid)","Sugar composition of reaction mixture, substrate Mlatose ([5]; two units/g-solid)",Structure (SMILES)
+,+,+,slightly acted,–,–,–,–,"OC[C@H]1O[C@@](CO)(O[C@H]2O[C@H](CO)[C@@H](O[C@H]3O[C@H](CO)[C@@H](O)[C@H](O)[C@H]3O)[C@H](O)[C@H]2O)[C@@H](O)[C@@H]1O [Erlose, erlose]"
+,+,+,slightly acted,–,–,–,–,"OC[C@H]1O[C@H](O[C@H]2C(O)O[C@H](CO)[C@@H](O)[C@@H]2O)[C@H](O)[C@@H](O)[C@@H]1O (stereo partly shown) [Kojibiose, kojibiose]"
+,+,+,slightly acted,0.0,0.3,17.9,78.0,"OC[C@H]1O[C@H](O[C@H]2[C@H](O)[C@@H](O)[C@H](O)O[C@@H]2CO)[C@H](O)[C@@H](O)[C@@H]1O [Maltose, maltose]"
+,+,+,slightly acted,–,–,–,–,"OC[C@@H](O)[C@@H](O[C@H]1O[C@H](CO)[C@@H](O[C@H]2O[C@H](CO)[C@@H](O)[C@H](O)[C@H]2O)[C@H](O)[C@H]1O)[C@H](O)[C@@H](O)CO [Maltotriitol, maltotriitol]"
+,+,+,slightly acted,–,–,–,–,"OC[C@H]1O[C@@H](O[C@H]2O[C@H](CO)[C@@H](O)[C@H](O)[C@H]2O)[C@H](O)[C@@H](O)[C@@H]1O [Neotrehalose, neotrehalose]"
+,+,+,slightly acted,–,–,–,–,"OC[C@H]1O[C@H](O[C@H]2[C@H](O)[C@@H](CO)OC(O)[C@@H]2O)[C@H](O)[C@@H](O)[C@@H]1O (stereo partly shown) [Nigerose, nigerose]"
